Tested on in one data set: not listed separately
Nature of the data set: Cell permeability, flux assay using Caco-2 cells. Particulars: human, Caco-2. How it is done:
C-3 In Vitro Tests for Determining Cell Permeability
The cell permeability of a substance can be investigated by means of in vitro testing in a flux assay using Caco-2 cells [M. D. Troutman and D. R. Thakker, Pharm. […] For this purpose, the cells were cultured for 15-16 days on 24-well filter plates. For the determination of permeation, the respective working example was applied in a HEPES buffer to the cells either apically (A) or basally (B) and incubated for 2 hours. After 0 hours and after 2 hours, samples were taken from the cis and trans compartments. The samples were separated by HPLC (Agilent 1200, Böblingen, Germany) using reverse phase columns.
Of critical importance for toxophores which are released intracellularly is the permeability from B to A [Papp(B-A)] and the ratio of Papp(B-A) to Papp(A-B) (efflux ratio): the lower this permeability, the slower the active and passive transport processes of the substance through the monolayer of Caco-2 cells.
In general terms: Passage across Caco-2 layers is used to estimate intestinal permeability.
The Papp B→A is how fast a substance crosses the layer from the basolateral side. A word on the efflux ratio: it is the permeability from basolateral to apical divided by that in the opposite direction, in the common usage. On to `CC(C)(C)[C@H](c1nc(-c2cc(F)ccc2F)cn1Cc1ccccc1)N(CC[C@H](N)C(=O)NCCCC[C@H](N)C(=O)O)C(=O)CO.O=C(O)C(F)(F)F` [Example 59, N^6-{(2S)-2-Amino-4-[{(1R)-1-[1-benzyl-4-(2,5-difluorophenyl)-1H-imidazol-2-yl]-2,2-dimethylpropyl}(glycoloyl)amino]butanoyl}-L-lysine trifluoroacetic acid (1:1)], for which the Papp B→A at 2 h was determined as 2.2 ×10⁻⁶ cm/s and the efflux ratio at 2 h is 4.8.

As to `CC(C)(C)[C@H](c1nc(-c2cc(F)ccc2F)cn1Cc1ccccc1)N(CC[C@H](N)C(=O)NCCN1C(=O)CC(SC[C@H](N)C(=O)O)C1=O)C(=O)CO` (stereo partly drawn) [Example 61, S-{1-[2-({(2S)-2-Amino-4-[{(1R)-1-[1-benzyl-4-(2,5-difluorophenyl)-1H-imidazol-2-yl]-2,2-dimethylpropyl}(glycoloyl)amino]butanoyl}amino)ethyl]-2,5-dioxopyrrolidin-3-yl}-L-cysteine], the basolateral-to-apical permeability (Papp B→A) at 2 h was 4.4 ×10⁻⁶ cm/s and the efflux ratio at 2 h was determined as 7.4.

Consider `CC(C)(C)[C@H](c1nc(-c2cc(F)ccc2F)cn1Cc1ccccc1)N(CC[C@H](N)C(=O)NCCOCCN1C(=O)CC(SC[C@H](N)C(=O)O)C1=O)C(=O)CO` (some centres unmarked) [Example 62], for which the apparent permeability from basolateral to apical (Papp B→A) at 2 h amounted to 5 ×10⁻⁶ cm/s and the efflux ratio at 2 h was 6.

As for `CC(C)[C@H](NC(=O)CCCCCN1C(=O)CC(SC[C@H](N)C(=O)O)C1=O)C(=O)N[C@@H](C)C(=O)N[C@@H](CCCCNC(=O)[C@@H](N)CCN(C(=O)CO)[C@@H](c1nc(-c2cc(F)ccc2F)cn1Cc1ccccc1)C(C)(C)C)C(=O)O.O=C(O)C(F)(F)F` (stereo partly drawn) [Example 63, N-[6-(3-{[(2R)-2-Amino-2-carboxyethyl]sulfanyl}-2,5-dioxopyrrolidin-1-yl)hexanoyl]-L-valyl-L-alanyl-N^6-{(2S)-2-amino-4-[{(1R)-1-[1-benzyl-4-(2,5-difluorophenyl)-1H-imidazol-2-yl]-2,2-dimethylpropyl}(glycoloyl)amino]butanoyl}-L-lysine trifluoroacetic acid (1:1)], the Papp B→A at 2 h is 0.098 ×10⁻⁶ cm/s and the efflux ratio at 2 h stood at 1.1.

As for `CC(C)(C)[C@H](c1nc(-c2cc(F)ccc2F)cn1Cc1ccccc1)N(CC[C@H](N)C(=O)NCCNC(=O)CN1C(=O)CC(SC[C@H](N)C(=O)O)C1=O)C(=O)CO.O=C(O)C(F)(F)F` (stereo partly drawn) [Example 64, S-[1-(2-{[2-({(2S)-2-Amino-4-[{(1R)-1-[1-benzyl-4-(2,5-difluorophenyl)-1H-imidazol-2-yl]-2,2-dimethylpropyl}(glycoloyl)amino]butanoyl}amino)ethyl]amino}-2-oxoethyl)-2,5-dioxopyrrolidin-3-yl]-L-cysteine trifluoroacetic acid (1:1)], the Papp B→A at 2 h was 1 ×10⁻⁶ cm/s and the efflux ratio at 2 h came out at 2.8.

Consider `CC(C)(C)[C@H](c1nc(-c2cc(F)ccc2F)cn1Cc1ccccc1)N(CC[C@H](N)C(=O)NN)C(=O)CO.O=C(O)C(F)(F)F` [Example 77, Trifluoroacetic acid/N-[(3S)-3-amino-4-hydrazino-4-oxobutyl]-N-{(1R)-1-[1-benzyl-4-(2,5-difluorophenyl)-1H-imidazol-2-yl]-2,2-dimethylpropyl}-2-hydroxyacetamide (1:1)], for which the basolateral-to-apical permeability (Papp B→A) at 2 h was found to be 48 ×10⁻⁶ cm/s and the efflux ratio at 2 h was 47.

Molecule `CC(C)(C)[C@H](c1nc(-c2cc(F)ccc2F)cn1Cc1ccccc1)N(CC[C@H](N)C(=O)NCCC(=O)O)C(=O)CO` [Example 79, N-{(2S)-2-Amino-4-[{(1R)-1-[1-benzyl-4-(2,5-difluorophenyl)-1H-imidazol-2-yl]-2,2-dimethylpropyl}(glycoloyl)amino]butanoyl}-beta-alanine] returned a basolateral-to-apical permeability (Papp B→A) at 2 h of 5.8 ×10⁻⁶ cm/s.

Molecule `CC(C)(C)[C@H](c1cc(-c2cc(F)ccc2F)cn1Cc1ccccc1)N(CC[C@H](N)C(=O)NCCOCCN1C(=O)CC(SC[C@H](N)C(=O)O)C1=O)C(=O)CO.O=C(O)C(F)(F)F` (stereo partly drawn) [Example 251, S-(1-{2-[2-({(2S)-2-Amino-4-[{(1R)-1-[1-benzyl-4-(2,5-difluorophenyl)-1H-pyrrol-2-yl]-2,2-dimethylpropyl}(glycoloyl)amino]butanoyl}amino)ethoxy]ethyl}-2,5-dioxopyrrolidin-3-yl)-L-cysteine/trifluoroacetic acid (1:1)] gave a Papp B→A at 2 h of 2.1 ×10⁻⁶ cm/s.

The next data set has as its target T1, human kinesin spindle protein KSP/Eg5 (Homo sapiens, UniProt P52732).
T1 construct: The motor domain of the human kinesin spindle protein KSP/Eg5; purchased tebu-bio/Cytoskeleton Inc 027EG01-XL
T1 sequence (P52732 18-359 limits assumed): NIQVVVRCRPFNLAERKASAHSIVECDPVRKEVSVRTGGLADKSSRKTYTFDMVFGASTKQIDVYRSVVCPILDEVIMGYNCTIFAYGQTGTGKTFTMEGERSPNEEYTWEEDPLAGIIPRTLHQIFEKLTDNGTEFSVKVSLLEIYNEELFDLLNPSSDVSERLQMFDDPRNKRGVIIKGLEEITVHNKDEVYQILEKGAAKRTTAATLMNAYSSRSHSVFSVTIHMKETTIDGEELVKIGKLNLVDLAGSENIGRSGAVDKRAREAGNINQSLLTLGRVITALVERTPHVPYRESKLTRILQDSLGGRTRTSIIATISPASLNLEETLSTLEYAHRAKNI
Nature of the data set: Inhibition of the kinesin spindle protein KSP/Eg5 (ATPase, malachite green). The format is biochemical. Particulars: 10 nM KSP motor domain, 500 μM ATP, 2 h RT. As to the method:
C-1b Determination of the Inhibition of the Kinesin Spindle Protein KSP/Eg5 by Selected Examples
The motor domain of the human kinesin spindle protein KSP/Eg5 (from tebu-bio/Cytoskeleton Inc, No. 027EG01-XL) is incubated at a concentration of 10 nM with 50 μg/ml taxol- (from Sigma No. T7191-5MG) stabilized microtubuli (bovine or porcine, from tebu-bio/Cytoskeleton Inc) for 5 min at RT in 15 mM PIPES, pH 6.8 (5 mM MgCl2 and 10 mM DTT, from Sigma). The freshly prepared mixture is aliquoted into a 384-well MTP. The inhibitors to be examined at concentrations of 1.0×10^−6 M to 1.0×10^−13 and ATP (final concentration 500 μM, from Sigma) are then added. Incubation is at RT for 2 h. ATPase activity is detected by detecting the inorganic phosphate formed using malachite green (from Biomol). […] The individual data of the dose-activity curve are eight-fold determinations. The IC50 values are means of three independent experiments.
The IC50 is the midpoint of a concentration-inhibition curve. On to `CC(C)(C)[C@H](c1nc(-c2cc(F)ccc2F)cn1Cc1ccccc1)N(CC(CN)CS)C(=O)CO` (single isomer, unassigned; isomer 1) [Example 93], for which the IC50 worked out at 2.52 nM.

`CC(C)(C)[C@H](c1nc(-c2cc(F)ccc2F)cn1Cc1ccccc1)N(CC(CN)CS)C(=O)CO` (single isomer, unassigned; isomer 2) [Example 94] registered a concentration for half-maximal inhibition (IC50) of 5.14 nM.

On to `CC(C)(C)[C@H](c1nc(-c2cc(F)ccc2F)cn1Cc1ccccc1)N(CC[C@H](N)C(=O)NCCCC[C@H](N)C(=O)O)C(=O)CO.O=C(O)C(F)(F)F` [Example 59, N^6-{(2S)-2-Amino-4-[{(1R)-1-[1-benzyl-4-(2,5-difluorophenyl)-1H-imidazol-2-yl]-2,2-dimethylpropyl}(glycoloyl)amino]butanoyl}-L-lysine trifluoroacetic acid (1:1)], for which the IC50 worked out at 4.27 nM. This IC50 and that of the molecule before are within 1.5-fold of each other.

`CC(C)[C@H](NC(=O)CCCCCN1C(=O)CC(SC[C@H](N)C(=O)O)C1=O)C(=O)N[C@@H](C)C(=O)N[C@@H](CCCCNC(=O)[C@@H](N)CCN(C(=O)CO)[C@@H](c1nc(-c2cc(F)ccc2F)cn1Cc1ccccc1)C(C)(C)C)C(=O)O.O=C(O)C(F)(F)F` (stereo partly drawn) [Example 63, N-[6-(3-{[(2R)-2-Amino-2-carboxyethyl]sulfanyl}-2,5-dioxopyrrolidin-1-yl)hexanoyl]-L-valyl-L-alanyl-N^6-{(2S)-2-amino-4-[{(1R)-1-[1-benzyl-4-(2,5-difluorophenyl)-1H-imidazol-2-yl]-2,2-dimethylpropyl}(glycoloyl)amino]butanoyl}-L-lysine trifluoroacetic acid (1:1)]: the IC50 was found to be 2.88 nM.

`CC(C)(C)[C@H](c1nc(-c2cc(F)ccc2F)cn1Cc1ccccc1)N(CC[C@H](N)C(=O)NCCNC(=O)CN1C(=O)CC(SC[C@H](N)C(=O)O)C1=O)C(=O)CO.O=C(O)C(F)(F)F` (stereo partly drawn) [Example 64, S-[1-(2-{[2-({(2S)-2-Amino-4-[{(1R)-1-[1-benzyl-4-(2,5-difluorophenyl)-1H-imidazol-2-yl]-2,2-dimethylpropyl}(glycoloyl)amino]butanoyl}amino)ethyl]amino}-2-oxoethyl)-2,5-dioxopyrrolidin-3-yl]-L-cysteine trifluoroacetic acid (1:1)] gave an IC50 of 3.06 nM.

Molecule `CC(C)(C)[C@H](c1nc(-c2cc(F)ccc2F)cn1Cc1ccccc1)N(CC[C@H](N)C(=O)N(N)CC(=O)O)C(=O)CO` [Example 81, (1-{(2S)-2-Amino-4-[{(1R)-1-[1-benzyl-4-(2,5-difluorphenyl)-1H-imidazol-2-yl]-2,2-dimethylpropyl}(glycoloyl)amino]butanoyl}hydrazino)acetic acid/trifluoroacetic acid (1:2)] returned an IC50 of 1.42 nM.

With `CC(C)(C)[C@H](c1nc(-c2cc(F)ccc2F)cn1Cc1ccccc1)N(CCCN)C(=O)c1ccc(N)cc1` [Example 95, Trifluoroacetic acid/4-amino-N-(3-aminopropyl)-N-{(1R)-1-[1-benzyl-4-(2,5-difluorophenyl)-1H-imidazol-2-yl]-2,2-dimethylpropyl}benzamide (2:1)], half-maximal inhibition (IC50) required 3.05 nM.

Molecule `CC(C)(C)[C@H](c1nc(-c2cc(F)ccc2F)cn1Cc1ccccc1)N(CCCNC(=O)[C@@H](N)CCCNC(N)=O)C(=O)CO` [Example 100, Trifluoroacetic acid/N-{3-[{(1R)-1-[1-benzyl-4-(2,5-difluorophenyl)-1H-imidazol-2-yl]-2,2-dimethylpropyl}(glycoloyl)amino]propyl}-N5-carbamoyl-L-ornithinamide (1:1)] registered an IC50 of 5.99 nM. This IC50 is about 2-fold higher than that of the molecule before.

`CC(C)[C@H](N)C(=O)N[C@@H](CCCNC(N)=O)C(=O)NCCCN(C(=O)CO)[C@@H](c1nc(-c2cc(F)ccc2F)cn1Cc1ccccc1)C(C)(C)C` [Example 101, Trifluoroacetic acid/L-valyl-N-{3-[{(1R)-1-[1-benzyl-4-(2,5-difluorophenyl)-1H-imidazol-2-yl]-2,2-dimethylpropyl}(glycoloyl)amino]propyl}-N5-carbamoyl-L-ornithinamide (1:1)]: the midpoint of inhibition, the IC50, lay at 4.28 nM. The IC50 values of the last two molecules are within 1.5-fold of each other.

With `CC(C)(C)[C@H](c1cc(-c2cc(F)ccc2F)cn1Cc1ccccc1)N(CC[C@H](N)C(=O)N[C@@H](CO)C(=O)O)C(=O)CO` [Example 201, N-{(2S)-2-Amino-4-[{(1R)-1-[1-benzyl-4-(2,5-difluorophenyl)-1H-pyrrol-2-yl]-2,2-dimethylpropyl}(glycoloyl)amino]butanoyl}-L-serine/trifluoroacetic acid (1:1)], the IC50 is 0.179 nM.

As for `CC(C)(C)[C@H](c1cc(-c2cc(F)ccc2F)cn1Cc1ccccc1)N(CC[C@H](N)C(=O)NCC(=O)O)C(=O)CO` [Example 203, N-{(2S)-2-Amino-4-[{(1R)-1-[1-benzyl-4-(2,5-difluorophenyl)-1H-pyrrol-2-yl]-2,2-dimethylpropyl}(glycoloyl)amino]butanoyl}glycine/trifluoroacetic acid (1:1)], the IC50 is 0.23 nM.

Consider `CC(C)(C)[C@H](c1cc(-c2cc(F)ccc2F)cn1Cc1ccccc1)N(CC[C@H](N)C(=O)NCCNC(=O)CNC(=O)CC1SC[C@@H](C(=O)O)NC1=O)C(=O)CO` (stereo partly drawn) [Example 256, (3R)-6-{(11S,15R)-11-Amino-15-[1-benzyl-4-(2,5-difluorophenyl)-1H-pyrrol-2-yl]-14-glycoloyl-16,16-dimethyl-2,5,10-trioxo-3,6,9,14-tetraazaheptadec-1-yl}-5-oxothiomorpholine-3-carboxylic acid/trifluoroacetic acid (1:1)], for which the IC50 is 16.4 nM.

Values taken from patent publication US10022453B2 (BAYER PHARMA AKTIENGESELLSCHAFT, priority 2013, dated 2018).
